Source: patent US11547678B2, “Aqueous pharmaceutical formulation of tapentadol for oral administration” (GRÜNENTHAL GMBH, priority 2011, dated 2023)

What was measured:
yeast = assay: Initial studies: activity against yeast; format: cell-based; details: 10 mg/mL free base
[1] = Chemical stability of 4 and 20 mg/mL oral solution (Example 7); format: physicochemical; details: 3 months storage
Protocol: Chemical Stability of 4 and 20 mg/mL Tapentadol Oral Solution
To investigate the chemical stability of tapentadol oral solutions in different concentrations (4 and 20 mg/mL), stability studies were performed over 3 months evaluating the following parameters appearance, assay of tapentadol, degradation, assay preservative (only for the 4 mg/mL formulation) and pH at 25° C./60% RH, 40° C./75% RH and 50° C. In addition, for the 4 mg/mL solution 2 weeks cycling studies (from −15° C. to 30° C. as well as from 5° C. to 40° C.) were performed.

mold (Aspergillus niger) = assay: Initial studies: activity against mold; format: cell-based; details: 10 mg/mL free base
Description: (§1) The activity against mold (Aspergillus niger) is lower but still within the limits of the requirements of the Pharm. Eur. The activity of tapentadol hydrochloride against Aspergillus niger has been evaluated at lower drug concentrations and at pH 4.0 and 5.0 in formulations containing citric acid as buffer system and hydrochloric acid and sodium hydroxide to adjust the pH.

[2] = Initial studies: antimicrobial activity of tapentadol hydrochloride; format: cell-based; details: 10 mg/mL free base
Description: as §1

Aspergillus niger = assay: Activity against Aspergillus niger at lower drug concentrations, pH 4.0 and 5.0 (Example 1); format: cell-based
Description: Determination of Antimicrobial Effective Concentration of Tapentadol Hydrochloride
as §1
The requirements of Pharm. Eur. for oral solutions (log reduction of 1 after 14 and no increase after 28 days concerning mold A. niger) are met at pH 4 for tapentadol concentrations of equal or above 8 mg/mL and at pH 5 for concentrations equal or above to 4 mg/m L.

[3] = Antimicrobial robustness testing of 4 mg/mL oral solution, lower sodium benzoate: USP and Pharm. Eur. requirements (Example 3); format: cell-based; details: 4 mg/mL solution
Protocol: Antimicrobial Robustness Testing of 4 mg/mL Tapentadol Oral Solution (Lower Concentration of Sodium Benzoate)
The 4 mg/mL solution of tapentadol has also been subjected to an antimicrobial robustness testing. […] Therefore, sodium benzoate has been used as a preservative in the formulation. The antimicrobial activity of the formulation was determined with 100% at target pH of 4 and with 80% of sodium benzoate at the pH limits of 3.5 and 4.5. The following compositions of the formulation were used for the antimicrobial robustness testing (Table 3).

[4] = Antimicrobial robustness testing of 4 mg/mL oral solution, higher sodium benzoate: USP and Pharm. Eur. requirements (Example 4); format: cell-based; details: 2.36 mg/mL sodium benzoate (corresponding to 2 mg/mL benzoic acid)
Protocol: Antimicrobial Robustness Testing of 4 mg/mL Tapentadol Oral Solution (Higher Concentration of Sodium Benzoate)
Based on the obtained results the test was repeated using a formulation containing a higher preservative concentration of 2.36 mg/mL instead of 1.77 mg/mL sodium benzoate.
The above study of example 3 was repeated using a formulation of 4 mg/mL tapentadol and 2.36 mg/mL sodium benzoate (corresponding to 2 mg/mL benzoic acid). The antimicrobial activity of the formulation was determined with 100% at target pH of 4 and with 80% of sodium benzoate at the pH limits of 3.5 and 4.5. The following compositions of the formulation were used for the antimicrobial robustness testing (Table 4).

SMILES | activity against yeast (yeast) | stability of the API in solution [1] | activity against mold (Aspergillus niger) (mold (Aspergillus niger)) | antimicrobial activity [2] | antimicrobial activity at pH 5 compared with pH 4 (Aspergillus niger; after 14 and 28 days) | concentration limit for antimicrobial effectiveness of tapentadol (Aspergillus niger; depending on the pH (4 to 5)) [mg/mL] | tapentadol concentration at which requirements of Pharm. Eur. for oral solutions concerning mold A. niger are met (Aspergillus niger; pH 5, log reduction of 1 after 14 and no increase after 28 days) [mg/mL] | antimicrobial effect of the drug substance [3] | antimicrobial efficacy for a 4 mg/mL tapentadol hydrochloride oral solution [4]
CC[C@@H](c1cccc(O)c1)[C@@H](C)CN(C)C.Cl [tapentadol hydrochloride, (1R,2R)-3-(3-dimethylamino-1-ethyl-2-methyl-propyl)-phenol hydrochloride] | high | good stability | lower but still within the limits of the requirements of the Pharm. Eur. | high | better antimicrobial activity | 4 to 8 | ≥ 4 | not sufficiently pronounced | 
O=C([O-])c1ccccc1.[Na+] [sodium benzoate] |  |  |  |  |  |  |  |  | sufficient
